17 molecules from patent US20260258048A1, “LACTAM-CONTAINING IMIDAZOPYRIDAZINE IL-17 INHIBITOR COMPOUNDS” (Janssen Pharmaceutica NV, priority 2023, published 2026) can be followed below.

The target of test [1] is IL-17A(FLAG-tagged): IL-17RA(His-tagged) (Homo sapiens, UniProt Q16552, K93Q). Nature of the test: IL-17A(FLAG-tagged): IL-17RA(His-tagged) binding disruption Eu-HTRF assay. Conditions: class of the average IC50 where tested more than once. The source says:
IL-17A(FLAG-tagged): IL-17RA(His-tagged) binding disruption Eu-HTRF assay An antibody directed against the FLAG tag of IL-17A (SEQ ID NO: 1) is labeled with the HTRF donor chromophore (Europium-cryptate). IL-17A is present as a dimer that is “locked into” this quaternary structure due to the formation of loop-spanning intramolecular disulfide bridges. The construct of IL-17RA used in the assay excludes the […] portion of the receptor and is fused to a C-terminal 10×His tag (SEQ ID NO:2). An antibody directed against the His tag of the IL-17RA chimera is labeled with the HTRF acceptor chromophore (“D2”). The fluorescence-resonance energy transfer (FRET) depends on the vicinity of the donor chromophore to the acceptor, and interruption of the binding between the IL-17A and IL-17RA causes the reduction/loss of FRET. Therefore, this assay allows to evaluate the compound effect on the binding IL-17A and IL-17RA by monitoring the fluorescence intensity of donor vs acceptor. The assay is run as described below.
40 nl of 2-fold serial diluted compound solution for total 22 dilution points is added into each well of a 1536-well, white, low-volume, non-binding plate (Greiner #782904), then 2 μl of FLAG tagged IL-17A at 2× final concentration (1 μM) in solution of PBS+0.01% Triton-X100 is added to each well. The assay plate is briefly centrifuged then incubated for 1 h at rt. A mixed solution is prepared containing 2×5 nM 10HIS×IL-17RA, 2×2.5 nM Eu-anti-FLAG (CISBIO), 2×5 nM D2-anti-HIS (CISBIO) in PBS+0.01% Triton-X100+200 mM Potassium Fluoride (Sigma 60238) and 2 μl of mix is added to each well of the assay plate. The plate is briefly centrifuged then incubated for 2 h at rt. The HTRF intensities at the wavelength of donor (615 nm) and acceptor (665 nm) are measured using BMG Pherastar. The ratio between intensities at two wavelengths is calculated and plotted against the compound concentration and the data is fitted to a one-site competition model to yield IC50 of the compound.
In general terms: TR-FRET usually uses a lanthanide donor and a delayed reading to cut background.

Test [2] relates to IL-17A-induced G-CSF production in human normal keratinocyte (NHK). Nature of the test: NHK assay: IL-17A-induced G-CSF production in normal human keratinocytes. Conditions: IL-17A 5 ng/mL, 24 h, class of the average IC50 where tested more than once. Format: cell-based. The procedure:
IL-17A acts directly on keratinocytes through binding to dimeric receptor IL-17RA/RC and drives the production of a number of inflammatory mediators known to be elevated in psoriasis lesional tissue. IL-17A small molecule inhibitors that block the IL-17A to interact with IL-17R would inhibit the IL-17A signaling in its targeted cells such as keratinocytes. The compound functional activity is evaluated for its impact on IL-17A-induced G-CSF production in human normal keratinocyte (NHK).
Adult normal human keratinocytes are cultured in keratinocyte growth medium (Lonza) in a flask till reaching ~90% confluence, then cells are transferred to a 384-well plate at density of 3000-4000 cell/well. Recombinant human IL-17A (Gibco PHC9174) is pre-incubated with titrated compound or DMSO for 1 h at rt then added to the cell culture plate. The final concentration of IL-17A is 5 ng/mL and DMSO is 0.2%, in the culture containing 5% FBS. Cells are cultured/treated for 24 h at 37° C. Supernatants are collected and G-CSF production is measured through HTRF technology using Human G-CSF Kit (CisBio). G-CSF concentration was extrapolated from the standard curve and IC50 is determined using GraphPad Prism. Cell viability is also evaluated using CellTiter-Glo kit (Promega) and effect of compound on cell viability is compared to DMSO control.

Sequence of UniProt Q16552 (Q16552 with tags, fused parts or gaps K93Q): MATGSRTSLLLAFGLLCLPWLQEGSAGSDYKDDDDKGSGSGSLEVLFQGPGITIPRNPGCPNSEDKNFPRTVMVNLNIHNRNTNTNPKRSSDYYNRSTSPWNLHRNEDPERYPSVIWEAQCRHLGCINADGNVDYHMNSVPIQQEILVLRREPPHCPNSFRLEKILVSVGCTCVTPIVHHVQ

`O=C(N[C@H](c1cn2ncc(CC3CCCNC3=O)cc2n1)C1CCC(F)(F)CC1)c1nonc1C1CC1` (single isomer, unassigned) [Example 23, 4-Cyclopropyl-N—[(S)-(4,4-difluorocyclohexyl)-[7-[[(3R*)-2-oxo-3-piperidyl]methyl]imidazo[1,2-b]pyridazin-2-yl]methyl]-1,2,5-oxadiazole-3-carboxamide] displayed an IC50 in test [1] of 0.4 to 4 µM.
For `O=C(N[C@H](c1cn2ncc(CC3CCNC3=O)cc2n1)C1CCC(F)(F)CC1)c1nonc1C1CC1` (single isomer, unassigned) [Example 22, 4-Cyclopropyl-N—[(S)-(4,4-difluorocyclohexyl)-[7-[[(3S*)-2-oxopyrrolidin-3-yl]methyl]imidazo[1,2-b]pyridazin-2-yl]methyl]-1,2,5-oxadiazole-3-carboxamide], the IC50 in test [2] and in test [1] was more than 4 µM throughout.
For the molecule `C[C@@H]1CNC(=O)[C@@H]1Cc1cnn2cc([C@@H](NC(=O)c3nonc3C3CC3)C3CCC(F)(F)CC3)nc2c1` (relative stereo) [Example 88, 4-Cyclopropyl-N—[(S)-(4,4-difluorocyclohexyl)-[7-[[(3R*,4S*)-4-methyl-2-oxo-pyrrolidin-3-yl]methyl]imidazo[1,2-b]pyridazin-2-yl]methyl]-1,2,5-oxadiazole-3-carboxamide], the IC50 in test [2] (Homo sapiens, Keratinocyte) is more than 4 µM; in test [1], 0.4 to 4 µM.
As for `O=C(N[C@H](c1cn2ncc(C[C@@]34CCC[C@H](C3)NC4=O)cc2n1)C1CCC(F)(F)CC1)c1nonc1C1CC1` (single isomer, unassigned) [Example 11], the IC50 in test [2] (Homo sapiens, Keratinocyte) is less than 0.4 µM; in test [1] it was less than 0.4 µM.
`O=C(N[C@H](c1cn2ncc(CC3CC(F)(F)CNC3=O)cc2n1)C1CCC(F)(F)CC1)c1nonc1C1CC1` (single isomer, unassigned) [Example 2, 4-Cyclopropyl-N—((S)-(7-(((S*)-5,5-difluoro-2-oxopiperidin-3-yl)methyl)imidazo[1,2-b]pyridazin-2-yl)(4,4-difluorocyclohexyl)methyl)-1,2,5-oxadiazole-3-carboxamide]: the figures for the IC50 in test [2] and in test [1] were more than 4 µM and 0.4 to 4 µM, respectively.
As for `O=C(N[C@H](c1cn2ncc(CC3C[C@@H](C4CC4)NC3=O)cc2n1)C1CCC(F)(F)CC1)c1nonc1C1CC1` (single isomer, unassigned) [Example 42, 4-Cyclopropyl-N—((S)-(7-(((3S*,5S)-5-cyclopropyl-2-oxopyrrolidin-3-yl)methyl)imidazo[1,2-b]pyridazin-2-yl)(4,4-difluorocyclohexyl)methyl)-1,2,5-oxadiazole-3-carboxamide], the IC50 in test [2] and in test [1] was less than 0.4 µM in each case.
As for `COc1nonc1C(=O)N[C@H](c1cn2ncc(CC3C[C@@H](C(F)(F)F)NC3=O)cc2n1)C1CCC(F)(F)CC1` (single isomer, unassigned) [Example 7, N—[(S)-(4,4-Difluorocyclohexyl)-[7-[[(3R*,5S)-2-oxo-5-(trifluoromethyl)pyrrolidin-3-yl]methyl]imidazo[1,2-b]pyridazin-2-yl]methyl]-4-methoxy-1,2,5-oxadiazole-3-carboxamide], the IC50 in test [2] and in test [1] was less than 0.4 µM in each case.
For `O=C(N[C@H](c1cn2ncc(C[C@@]3(O)C[C@@H](C(F)(F)F)NC3=O)cc2n1)C1CCC(F)(F)CC1)c1nonc1C1CC1` [Example 36], the IC50 was less than 0.4 µM in test [2] (Homo sapiens, Keratinocyte) and less than 0.4 µM in test [1].
Turning to `CC1(Cc2cnn3cc([C@@H](NC(=O)c4nonc4C4CC4)C4CCC(F)(F)CC4)nc3c2)CCNC1=O` (single isomer, unassigned) [Example 54, 4-Cyclopropyl-N—((S)-(4,4-difluorocyclohexyl)(7-(((S*)-3-methyl-2-oxopyrrolidin-3-yl)methyl)imidazo[1,2-b]pyridazin-2-yl)methyl)-1,2,5-oxadiazole-3-carboxamide], the values for the IC50 in test [2] and in test [1] were more than 4 µM and 0.4 to 4 µM, respectively.
Regarding `O=C(N[C@H](c1cn2ncc([C@@H](O)[C@@H]3C[C@H](C(F)(F)F)NC3=O)cc2n1)C1CCC(F)(F)CC1)c1nonc1C1CC1` (single isomer, unassigned) [Example 76], the IC50 is 0.4 to 4 µM in test [2] (Homo sapiens, Keratinocyte) and more than 4 µM in test [1].
`O=C(N[C@H](c1cn2ncc(C[C@]34CC[C@@H](C3)NC4=O)cc2n1)C1CCC(F)(F)CC1)c1nonc1C1CC1` (single isomer, unassigned) [Example 18]: the IC50 fell in the range of 0.4 to 4 µM in test [2] (Homo sapiens, Keratinocyte) and 0.4 to 4 µM in test [1].
Take `C[C@@H](c1cnn2cc([C@@H](NC(=O)c3nonc3C3CC3)C3CCC(F)(F)CC3)nc2c1)[C@@H]1C[C@@H](C(F)(F)F)NC1=O` (single isomer, unassigned) [Example 80, 4-Cyclopropyl-N—((S)-(4,4-difluorocyclohexyl(7-((R*)-1-((3S*,5S)-2-oxo-5-(trifluoromethyl)pyrrolidin-3-yl)ethyl)imidazo[1,2-b]pyridazin-2-yl)methyl)-1,2,5-oxadiazole-3-carboxamide]: the half-maximal inhibitory concentration (IC50) in test [2] (Homo sapiens, Keratinocyte) lay in the range of 0.4 to 4 µM; in test [1], 0.4 to 4 µM.
Take `O=C(N[C@H](c1cn2ncc([C@H]3C[C@@]34C[C@@H](C(F)(F)F)NC4=O)cc2n1)C1CCC(F)(F)CC1)c1nonc1C1CC1` (relative stereo) [Example 41, 4-Cyclopropyl-N—((S)-(4,4-difluorocyclohexyl)(7-((1R*,3R*,6S)-4-oxo-6-(trifluoromethyl)-5-azaspiro[2.4]heptan-1-yl)imidazo[1,2-b]pyridazin-2-yl)methyl)-1,2,5-oxadiazole-3-carboxamide]: the IC50 in test [2] (Homo sapiens, Keratinocyte) was more than 4 µM; in test [1], more than 4 µM.
With `C[C@H]1CNC(=O)[C@H]1Cc1cnn2cc([C@@H](NC(=O)c3nonc3C3CC3)C3CCC(F)(F)CC3)nc2c1` (relative stereo) [Example 86, 4-Cyclopropyl-N—[(S)-(4,4-difluorocyclohexyl)-[7-[[(3S*,4R*)-4-methyl-2-oxo-pyrrolidin-3-yl]methyl]imidazo[1,2-b]pyridazin-2-yl]methyl]-1,2,5-oxadiazole-3-carboxamide], the IC50 in test [2] (Homo sapiens, Keratinocyte) is more than 4 µM; in test [1], 0.4 to 4 µM.
In turn, `CC[C@H]1C[C@@H](Cc2cnn3cc([C@@H](NC(=O)c4nonc4C4CC4)C4CCC(F)(F)CC4)nc3c2)C(=O)N1` (relative stereo) [Example 92, 4-Cyclopropyl-N—[(S)-(4,4-difluorocyclohexyl)-[7-[[(3R*,5S*)-5-ethyl-2-oxo-pyrrolidin-3-yl]methyl]imidazo[1,2-b]pyridazin-2-yl]methyl]-1,2,5-oxadiazole-3-carboxamide] showed an IC50 in test [1] of more than 4 µM.
Consider `CC[C@H]1C[C@H](Cc2cnn3cc([C@@H](NC(=O)c4nonc4C4CC4)C4CCC(F)(F)CC4)nc3c2)C(=O)N1` (relative stereo) [Example 91, 4-Cyclopropyl-N—[(S)-(4,4-difluorocyclohexyl)-[7-[[(3S*,5S*)-5-ethyl-2-oxo-pyrrolidin-3-yl]methyl]imidazo[1,2-b]pyridazin-2-yl]methyl]-1,2,5-oxadiazole-3-carboxamide], for which the IC50 in test [1] lay within 0.4 to 4 µM.
Molecule `O=C(N[C@H](c1cn2ncc(CC3CCCNC3=O)cc2n1)C1CCC(F)(F)CC1)c1nonc1C1CC1` (single isomer, unassigned) [Example 24, 4-Cyclopropyl-N—[(S)-(4,4-difluorocyclohexyl)-[7-[[(3S*)-2-oxo-3-piperidyl]methyl]imidazo[1,2-b]pyridazin-2-yl]methyl]-1,2,5-oxadiazole-3-carboxamide] registered an IC50 in test [1] of 0.4 to 4 µM.

One may read the IC50 as the concentration that gives 50% inhibition. Read a high IC50 as weaker potency.
